35 molecules from US7420056B2, “Substituted bicyclic imidazo-3-ylamine compounds” (Gruenenthal GmbH, priority 2004, dated 2008) can be followed below.

Where a name gives a salt, the structure may show the parent alone.

The target in the assay is mGluR5 receptor (Sus scrofa, UniProt I3LUI7). The assay is described as follows: Affinity for the mGluR5 receptor: inhibition of 3[H]-MPEP binding in pig brain homogenate. The conditions noted are these: for IC50: 3[H]-MPEP binding; for inhibition at 10 µM: 10 μM compound, 5 nM 3[H]-MPEP, read-out: mGluR5 receptor inhibition of ^3[H]-MPEP binding [10 μM] in % at a concentration of the example compounds of 10 μM. Put shortly: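 Pig brain membranes (450 μg protein; hemispheres without medulla, cerebellum and pons) in 30 mM Hepes pH 8.0 were incubated 60 min at room temperature with 5 nM [3H]-MPEP and compound at 10 μM. Bound radioactivity was filtered and counted. Nonspecific binding was defined with 10 μM MPEP.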
mGluR5 receptor, sequence (I3LUI7 19-1212): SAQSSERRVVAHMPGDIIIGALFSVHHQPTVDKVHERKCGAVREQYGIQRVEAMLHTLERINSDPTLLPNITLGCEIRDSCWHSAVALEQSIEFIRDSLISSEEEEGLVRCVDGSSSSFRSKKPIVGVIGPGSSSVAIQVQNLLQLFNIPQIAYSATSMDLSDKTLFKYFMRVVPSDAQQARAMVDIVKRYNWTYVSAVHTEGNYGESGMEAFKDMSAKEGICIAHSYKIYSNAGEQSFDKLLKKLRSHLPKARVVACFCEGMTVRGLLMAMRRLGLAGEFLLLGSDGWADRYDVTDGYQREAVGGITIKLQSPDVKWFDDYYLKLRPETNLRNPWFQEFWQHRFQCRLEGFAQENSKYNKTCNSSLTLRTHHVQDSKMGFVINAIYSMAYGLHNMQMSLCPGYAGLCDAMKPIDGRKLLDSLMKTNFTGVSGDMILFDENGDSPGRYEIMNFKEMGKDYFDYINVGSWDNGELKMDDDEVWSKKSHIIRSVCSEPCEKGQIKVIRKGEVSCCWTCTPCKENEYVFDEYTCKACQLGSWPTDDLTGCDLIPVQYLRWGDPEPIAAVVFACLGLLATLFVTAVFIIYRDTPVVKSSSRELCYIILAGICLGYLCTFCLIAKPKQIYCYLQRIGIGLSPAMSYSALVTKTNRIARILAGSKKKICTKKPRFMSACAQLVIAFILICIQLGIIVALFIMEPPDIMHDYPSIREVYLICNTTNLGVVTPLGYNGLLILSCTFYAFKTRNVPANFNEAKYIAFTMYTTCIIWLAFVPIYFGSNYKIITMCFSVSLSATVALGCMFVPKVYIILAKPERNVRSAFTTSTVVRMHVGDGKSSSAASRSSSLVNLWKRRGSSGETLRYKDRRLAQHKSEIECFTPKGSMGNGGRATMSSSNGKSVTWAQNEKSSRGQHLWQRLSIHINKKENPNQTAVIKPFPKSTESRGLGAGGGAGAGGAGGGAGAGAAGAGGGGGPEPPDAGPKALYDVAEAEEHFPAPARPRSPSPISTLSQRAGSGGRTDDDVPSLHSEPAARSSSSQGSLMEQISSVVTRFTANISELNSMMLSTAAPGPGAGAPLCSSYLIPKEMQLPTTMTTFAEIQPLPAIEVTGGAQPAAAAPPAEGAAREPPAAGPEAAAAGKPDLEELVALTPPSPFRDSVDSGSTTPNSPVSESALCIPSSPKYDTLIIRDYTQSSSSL

Turning to `Cc1cc(C#Cc2ccccn2)sc1-c1nc2cnccn2c1NC(C)(C)C` [Example 183, N-tert-butyl-2-(3-methyl-5-(pyridin-2-ylethynyl)thiophen-2-yl)imidazo[1,2-a]pyrazin-3-amine hydrochloride], the IC50 (in general, the concentration that gives 50% inhibition) amounted to 230 nM.

Regarding `C=Cc1cccc(C#Cc2ccc(-c3nc4cnccn4c3NC(C)(C)C)s2)c1` [Example 184, N-tert-butyl-2-(5-((3-vinylphenyl)ethynyl)thiophen-2-yl)imidazo[1,2-a]pyrazin-3-amine], the IC50 came to 270 nM.

Consider `CC(C)(C)Nc1c(-c2ccc(C#Cc3c[nH]cn3)s2)nc2cnccn12` [Example 185, 2-(5-((1H-imidazol-4-yl)ethynyl)thiophen-2-yl)-N-tert-butylimidazo[1,2-a]pyrazin-3-amine hydrochloride], for which the IC50 came to 190 nM.

Consider `Cc1cccc(C#Cc2cccc(-c3nc4ccc(Cl)cn4c3NC3CCCCC3)c2)n1` [Example 193, 6-chloro-N-cyclohexyl-2-(3-((6-methylpyridin-2-yl)ethynyl)phenyl)imidazo[1,2-a]pyridin-3-amine], for which the inhibition at 10 µM was 79%.

As to `Cc1cc(C)n2c(NCCc3ccccc3)c(-c3ccc(C#Cc4ccccc4)s3)nc2n1` [Example 194, 5,7-dimethyl-N-phenethyl-2-(5-(phenylethynyl)thiophen-2-yl)imidazo[1,2-a]pyrimidin-3-amine], the inhibition at 10 µM worked out at 30%.

For `COc1cccc(CCNc2c(-c3ccc(C#Cc4ccccc4)s3)nc3nc(C)cc(C)n23)c1` [Example 195, N-(3-methoxyphenethyl)-5,7-dimethyl-2-(5-(phenylethynyl)thiophen-2-yl)imidazo[1,2-a]pyrimidin-3-amine], the inhibition at 10 µM is 53%.

Consider `COc1cccc(CCNc2c(-c3cc(C#Cc4ccccc4)cs3)nc3nc(C)cc(C)n23)c1` [Example 196, N-(3-methoxyphenethyl)-5,7-dimethyl-2-(4-(phenylethynyl)thiophen-2-yl)imidazo[1,2-a]pyrimidin-3-amine], for which the inhibition at 10 µM amounted to 68%.

On to `COc1cccc(CCNc2c(-c3ccc(C#Cc4ccccc4)o3)nc3nc(C)cc(C)n23)c1` [Example 197, N-(3-methoxyphenethyl)-5,7-dimethyl-2-(5-(phenylethynyl)furan-2-yl)imidazo[1,2-a]pyrimidin-3-amine], for which the inhibition at 10 µM was 31%.

In the case of `Cc1cccn2c(NCc3ccc(Cl)cc3)c(-c3ccc(C#Cc4ccccc4)s3)nc12` [Example 198, N-(4-chlorobenzyl)-8-methyl-2-(5-(phenylethynyl)thiophen-2-yl)imidazo[1,2-a]pyridin-3-amine], the inhibition at 10 µM was determined as 67%.

Consider `COc1cccc(CCNc2c(-c3cc(C#Cc4ccccc4)cs3)nc3cccc(C)n23)c1` [Example 199, N-(3-methoxyphenethyl)-5-methyl-2-(4-(phenylethynyl)thiophen-2-yl)imidazo[1,2-a]pyridin-3-amine], for which the inhibition at 10 µM is 57%.

Consider `CCCCC(C)(C)Nc1c(-c2cc(C#Cc3ccccc3)cs2)nc2cnccn12` [Example 200, N-(2-methylhexan-2-yl)-2-(4-(phenylethynyl)thiophen-2-yl)imidazo[1,2-a]pyrazin-3-amine], for which the inhibition at 10 µM amounted to 62%.

As for `C(#Cc1csc(-c2nc3cnccn3c2NCCc2ccccc2)c1)c1ccccc1` [Example 201, N-phenethyl-2-(4-(phenylethynyl)thiophen-2-yl)imidazo[1,2-a]pyrazin-3-amine], the inhibition at 10 µM is 55%.

Regarding `COc1cccc(CCNc2c(-c3cc(C#Cc4ccccc4)cs3)nc3cnccn23)c1` [Example 202, N-(3-methoxyphenethyl)-2-(4-(phenylethynyl)thiophen-2-yl)imidazo[1,2-a]pyrazin-3-amine], the inhibition at 10 µM worked out at 70%.

Turning to `C(#Cc1csc(-c2nc3cnccn3c2NCCc2cccs2)c1)c1ccccc1` [Example 203, 2-(4-(phenylethynyl)thiophen-2-yl)-N-(2-(thiophen-2-yl)ethyl)imidazo[1,2-a]pyrazin-3-amine], the inhibition at 10 µM came out at 60%.

Turning to `Clc1ccc(CNc2c(-c3ccc(C#Cc4ccccc4)s3)nc3ccccn23)cc1` [Example 204, N-(4-chlorobenzyl)-2-(5-(phenylethynyl)thiophen-2-yl)imidazo[1,2-a]pyridin-3-amine], the inhibition at 10 µM is 30%.

Regarding `CCCC(C)(C)Nc1c(-c2ccc(C#Cc3ccccc3)s2)nc2cnccn12` [Example 205, N-(2-methylpentan-2-yl)-2-(5-(phenylethynyl)thiophen-2-yl)imidazo[1,2-a]pyrazin-3-amine], the inhibition at 10 µM amounted to 92%.

For the molecule `C(#Cc1csc(-c2nc3cnccn3c2NCC2CCCCC2)c1)c1ccccc1` [Example 206, N-(cyclohexylmethyl)-2-(4-(phenylethynyl)thiophen-2-yl)imidazo[1,2-a]pyrazin-3-amine], the inhibition at 10 µM is 63%.

On to `COc1ccccc1CNc1c(-c2ccc(C#Cc3ccccc3)o2)nc2cnccn12` [Example 207, N-(2-methoxybenzyl)-2-(5-(phenylethynyl)furan-2-yl)imidazo[1,2-a]pyrazin-3-amine], for which the inhibition at 10 µM worked out at 35%.

On to `C(#Cc1csc(-c2nc3ccccn3c2NCC2CCCCC2)c1)c1ccccc1` [Example 208, N-(cyclohexylmethyl)-2-(4-(phenylethynyl)thiophen-2-yl)imidazo[1,2-a]pyridin-3-amine], for which the inhibition at 10 µM came out at 57%.

`CCCC(C)(C)Nc1c(-c2cc(C#Cc3ccccc3)cs2)nc2ccccn12` [Example 209, N-(2-methylpentan-2-yl)-2-(4-(phenylethynyl)thiophen-2-yl)imidazo[1,2-a]pyridin-3-amine]: the inhibition at 10 µM was 55%.

For `Cc1cc(Br)c2nc(-c3cccc(C#Cc4cccc(C)n4)c3)c(NC(C)(C)CC(C)(C)C)n2c1` [Example 210, 8-bromo-6-methyl-2-(3-((6-methylpyridin-2-yl)ethynyl)phenyl)-N-(2,4,4-trimethylpentan-2-yl)imidazo[1,2-a]pyridin-3-amine], the inhibition at 10 µM was 68%.

As to `Cc1cc(Br)c2nc(-c3cccc(C#Cc4ccccn4)c3)c(NC3CCCC3)n2c1` [Example 211, 8-bromo-N-cyclopentyl-6-methyl-2-(3-(pyridin-2-ylethynyl)phenyl)imidazo[1,2-a]pyridin-3-amine], the inhibition at 10 µM was 82%.

For the molecule `C(#Cc1csc(-c2nc3cnccn3c2NC2CCCC2)c1)c1ccccc1` [Example 212, N-cyclopentyl-2-(4-(phenylethynyl)thiophen-2-yl)imidazo[1,2-a]pyrazin-3-amine], the inhibition at 10 µM is 90%.

Regarding `CC(Nc1c(-c2cc(C#Cc3ccccc3)cs2)nc2cnccn12)c1ccccc1` (centres unmarked) [Example 213, N-(1-phenylethyl)-2-(4-(phenylethynyl)thiophen-2-yl)imidazo[1,2-a]pyrazin-3-amine], the inhibition at 10 µM worked out at 84%.

For `CCCC(C)(C)Nc1c(-c2cc(C#Cc3ccccc3)cs2)nc2cnccn12` [Example 214, N-(2-methylpentan-2-yl)-2-(4-(phenylethynyl)thiophen-2-yl)imidazo[1,2-a]pyrazin-3-amine], the inhibition at 10 µM was determined as 77%.

Take `Cc1cc(Br)c2nc(-c3ccc(C#Cc4ccccn4)o3)c(NC3CCCCC3)n2c1` [Example 215, 8-bromo-N-cyclohexyl-6-methyl-2-(5-(pyridin-2-ylethynyl)furan-2-yl)imidazo[1,2-a]pyridin-3-amine]: the inhibition at 10 µM was 51%.

Turning to `C(#Cc1ccc(-c2nc3cnccn3c2NC2CCCC2)o1)c1ccccc1` [Example 216, N-cyclopentyl-2-(5-(phenylethynyl)furan-2-yl)imidazo[1,2-a]pyrazin-3-amine], the inhibition at 10 µM turned out to be 49%.

On to `COc1cccc(CCNc2c(-c3cc(C#Cc4ccccc4)cs3)nc3nc(C)ccn23)c1` [Example 217, N-(3-methoxyphenethyl)-7-methyl-2-(4-(phenylethynyl)thiophen-2-yl)imidazo[1,2-a]pyrimidin-3-amine], for which the inhibition at 10 µM came to 62%.

As for `CC(C)(C)CC(C)(C)Nc1c(-c2ccc(C#Cc3ccccc3)s2)nc2c(OCc3ccccc3)cccn12` [Example 218, 8-(benzyloxy)-2-(5-(phenylethynyl)thiophen-2-yl)-N-(2,4,4-trimethylpentan-2-yl)imidazo[1,2-a]pyridin-3-amine], the inhibition at 10 µM worked out at 38%.

On to `C(#Cc1csc(-c2nc3c(OCc4ccccc4)cccn3c2NC2CCCC2)c1)c1ccccc1` [Example 219, 8-(benzyloxy)-N-cyclopentyl-2-(4-(phenylethynyl)thiophen-2-yl)imidazo[1,2-a]pyridin-3-amine], for which the inhibition at 10 µM came out at 33%.

Regarding `CCCC(C)(C)Nc1c(-c2cc(C#Cc3ccccc3)cs2)nc2c(OCc3ccccc3)cccn12` [Example 220, 8-(benzyloxy)-N-(2-methylpentan-2-yl)-2-(4-(phenylethynyl)thiophen-2-yl)imidazo[1,2-a]pyridin-3-amine], the inhibition at 10 µM was determined as 31%.

Consider `Fc1ccc(CNc2c(-c3ccc(C#Cc4ccccc4)o3)nc3ccc(Cl)cn23)cc1` [Example 221, 6-chloro-N-(4-fluorobenzyl)-2-(5-(phenylethynyl)furan-2-yl)imidazo[1,2-a]pyridin-3-amine], for which the inhibition at 10 µM was 40%.

Turning to `CCCCNc1c(-c2cc(C#Cc3ccccc3)cs2)nc2ccc(Br)c(C)n12` [Example 222, 6-bromo-N-butyl-5-methyl-2-(4-(phenylethynyl)thiophen-2-yl)imidazo[1,2-a]pyridin-3-amine], the inhibition at 10 µM turned out to be 33%.

With `Cc1cccn2c(Nc3ccco3)c(-c3ccc(C#Cc4ccccc4)o3)nc12` [Example 223, N-(furan-2-yl)-8-methyl-2-(5-(phenylethynyl)furan-2-yl)imidazo[1,2-a]pyridin-3-amine], the inhibition at 10 µM was found to be 80%.

Regarding `C(#Cc1ccc(-c2nc3ccccn3c2Nc2ccco2)o1)c1ccccc1` [Example 224, N-(furan-2-yl)-2-(5-(phenylethynyl)furan-2-yl)imidazo[1,2-a]pyridin-3-amine], the inhibition at 10 µM is 69%.
